# Experimental data from patent publication US8476197B2, “Aminopropenoates as fungicides” (priority 2009, dated 2013).
# Marks after values point to notes of the source that are not given here.
# Settings: pH 2.3
row,Structure (SMILES),Log P
1,C=CCONC(=O)C(C#N)=C(NC(C)C(C)C)c1cccnc1Cl (stereo not shown) [Compound 1461],2.66
2,CCOC(=O)C(C#N)=C(Nc1cccc(F)c1OC)c1cccnc1Cl [Compound 1611],3.13^[c]; 3.13^[b]

# More lines, now with the values ahead:
row,Log P,Structure (SMILES)
1,4.68,CCOC(=O)C(C#N)=C(NC(C)C(C)C)c1cccnc1-c1cc(Cl)cc(Cl)c1 (stereo not shown) [Compound 975]
2,3.55,CCOC(=O)C(C#N)=C(NC(C)C(C)C)c1cccnc1-c1ccsc1 (stereo not shown) [Compound 1519]
3,2.18,C#CCNC(=C(C#N)C(=O)OCC)c1cccnc1Cl [Compound 1044]

# Same assay, conditions: pH 2.7
row,Structure (SMILES),Log P
1,COC(=O)C(C#N)=C(NC(C)c1nccs1)c1cn(C)nc1C(F)F (racemic) [Compound 61],2.13^[a]
2,CCNC(=O)C(C#N)=C(NC(C)C(C)C)c1ccnc(Br)c1Cl (stereo not shown) [Compound 1210],3.6^[a]
3,C#CC(C)(C)NC(=C(C#N)C(=O)OCC)c1cn(C)cc1C(F)(F)F [Compound 1038],3.21^[a]
4,CC(C)C(C)NC(=C(C#N)C(=O)N1CCSC1C)c1cccnc1Cl (stereo not shown) [Compound 1615],3.6^[a]
5,COC(=O)C(C#N)=C(NC(C)c1ccc(C(C)(C)C)cc1)c1cccnc1Cl (stereo not shown) [Compound 406],4.23^[a]
6,COC(=O)C(C#N)=C(NC(C)c1nc(C)cs1)c1sc(C)nc1C(F)(F)F (racemic) [Compound 180],3.04^[a]
7,CCOC(=O)C(C#N)=C(NC(C)c1nc(C)cs1)c1cccnc1Cl (stereo not shown) [Compound 1536],2.88^[a]
8,CCOC(=O)C(C#N)=C(NC(C)C(=O)Nc1ccc2ccccc2c1)c1cccnc1Cl (stereo not shown) [Compound 1193],3.51^[a]
9,C=CCOC(=O)C(C#N)=C(NC(C)c1ccccn1)c1cn(C)nc1C(F)F (mixture of isomers) [Compound 307],2.56^[a]
10,CCOC(=O)C(C#N)=C(NC(C)(C)CSC)c1cc(C)oc1C [Compound 619],3.58^[a]
11,CCOC(=O)C(C#N)=C(Nc1cccc2oc(C)nc12)c1cccnc1Cl [Compound 1555],3^[a]
12,CCOC(=O)C(C#N)=C(Nc1ccc(OC(F)F)cc1)c1cn(C)nc1C(F)F [Compound 472],3.04^[a]
13,CCOC(=O)C(C#N)=C(NC(C)(C)C#CCOC)c1cn(C)nc1C(F)F [Compound 1101],2.73^[a]
14,CC#CC1(NC(=C(C#N)C(=O)OCC)c2cn(C)nc2C(F)F)CCCC1 [Compound 1143],3.39^[a]
15,C=CCNC(=O)C(C#N)=C(NC(C)C(C)C)c1cn(C)nc1C(F)F (stereo not shown) [Compound 1007],2.9^[a]
16,CCOC(=O)C(C#N)=C(NC(C)COc1ccccc1)c1cccnc1Cl (stereo not shown) [Compound 1161],3.58^[a]

row,Structure (SMILES),Log P
1,COC(=O)C(C#N)=C(NC1CCC(C)CC1)c1cccnc1Cl (stereo not shown) [Compound 1076],3.37^[a]
2,COC(=O)C(C#N)=C(NC1CCC1)c1cccnc1Cl [Compound 793],2.34^[a]
3,CCOC(=O)C(C#N)=C(NC(C)c1ccc(Cl)cn1)c1cccnc1Cl (stereo not shown) [Compound 1445],3.3^[a]
4,CC(NC(=C(C#N)C(=O)O)c1cccnc1Cl)c1nccs1 (stereo not shown) [Compound 1479],1.01^[a]
5,CCOC(=O)C(C#N)=C(NC(C)(C)c1ccc(Cl)cc1)c1cn(C)nc1C(F)F [Compound 1215],3.71^[a]
6,COC(=O)C(C#N)=C(Nc1ccc(Cl)cc1)c1sc(C)nc1C(F)(F)F [Compound 517],3.55^[a]
7,CCOC(=O)C(C#N)=C(NC(C)c1ccccn1)c1cccnc1Cl (mixture of isomers) [Compound 292],2.5^[a]
8,COC(=O)C(C#N)=C(Nc1ccc2ncsc2c1)c1sc(C)nc1C(F)(F)F [Compound 465],2.64^[a]
9,CCOC(=O)C(C#N)=C(NC(C)c1ccc2ccccc2n1)c1cccnc1Cl (stereo not shown) [Compound 1441],3.37^[a]
10,CC(NC(=C(C#N)C(=O)NC1CC1)c1cn(C)nc1C(F)F)c1nccs1 (racemic) [Compound 1279],2.04^[a]
11,CCOC(=O)C(C#N)=C(NC(C)c1cccc(C)n1)c1cccnc1Cl (stereo not shown) [Compound 1440],2.56^[a]
12,COC(=O)C(C#N)=C(NC1(c2cccc(Cl)c2)CC1)c1cccnc1Cl [Compound 383],3.11^[a]
13,CC(C)C(C)NC(=C(C#N)C(=O)Nc1ccncc1)c1cccnc1Cl (stereo not shown) [Compound 1515],1.58^[a]
14,COC(=O)C(C#N)=C(NC1CC(C(F)(F)F)CC(C(F)(F)F)C1)c1cccnc1Cl (stereo not shown) [Compound 1071],3.42^[a]
15,COC(=O)C(C#N)=C(NC(C)c1ccc(C)cc1)c1sc(C)nc1C(F)(F)F (mixture of isomers) [Compound 443],4.01^[a]
16,COC(=O)C(C#N)=C(NC1(C(F)(F)F)CCCCC1)c1cccnc1Cl [Compound 1113],2.99^[a]

# Second part, the compound after the results:
row,Log P,Structure (SMILES)
1,3.99^[a],CCCC(C)NC(=C(C#N)C(=O)OCC)c1ccnc(Cl)c1Cl (racemic) [Compound 1390]
2,3.94^[a],CCOC(=O)C(C#N)=C(NC(C)COc1ccc(C)cc1)c1cccnc1Cl (stereo not shown) [Compound 1165]
3,3.11^[a],CCOC(=O)C(C#N)=C(NC(C)COC)c1sc(C)nc1C(F)(F)F (racemic) [Compound 678]
4,2.92^[a],CCOC(=O)C(C#N)=C(NC(C)c1cscn1)c1ccnc(Cl)c1Cl (mixture of isomers) [Compound 290]
5,2.2[a],CCOC(=O)C(C#N)=C(NC(C)c1nc(C(C)C)no1)c1cc(Cl)ncc1Cl (racemic) [Compound 253]
6,4.26^[a],CCOC(=O)C(C#N)=C(NC(C)C(C)C)c1nc(SC)ncc1Br (stereo not shown) [Compound 972]
7,4.3^[a],CCOC(=O)C(C#N)=C(Nc1ccccc1SCC(F)(F)F)c1cc(C)oc1C [Compound 416]
8,2.82^[a],CCOC(=O)C(C#N)=C(NCc1nc2ccccc2s1)c1cn(C)nc1C(F)F [Compound 191]
9,2.7^[a],CCOC(=O)C(C#N)=C(NCc1nccs1)c1ncc(Cl)cc1Cl [Compound 228]
10,3.56^[a],CCOC(=O)C(C#N)=C(NC(C)C1CC1)c1cn(C)cc1C(F)(F)F (racemic) [Compound 901]
11,3.99^[a],C#CC(C)(C)NC(=C(C#N)C(=O)OCC)c1cc(Cl)sc1Cl [Compound 1033]
12,5.36^[a],CCOC(=O)C(C#N)=C(NC(C)CCCC(C)C)c1sccc1Br (stereo not shown) [Compound 928]
13,3.21^[a],CCOC(=O)C(C#N)=C(Nc1ccc2ncsc2c1)c1sccc1C(F)(F)F [Compound 509]
14,3.78^[a],CCOC(=O)C(C#N)=C(NC(C)COC)c1cc(Cl)sc1Cl (stereo not shown) [Compound 1588]
15,3.33^[a],CCOC(=O)C(C#N)=C(NC(C)C(=O)OCC)c1sccc1Br (racemic) [Compound 672]
16,4.54^[a],CCOC(=O)C(C#N)=C(NC(C)c1ccc(C)cc1)c1sccc1C(F)(F)F (mixture of isomers) [Compound 439]

row,Log P,Structure (SMILES)
1,4.51^[a],CCOC(=O)C(C#N)=C(NC(C)CCc1ccccc1)c1sccc1Br (mixture of isomers) [Compound 445]
2,3.99^[a],CCOC(=O)C(C#N)=C(NC(C)C(=O)Nc1ccc2ccccc2c1)c1sc(C)nc1C(F)(F)F (racemic) [Compound 676]
3,2.8^[a],CCOC(=O)C(C#N)=C(NC(C)C(C)OC)c1cccnc1Cl (stereo not shown) [Compound 1527]
4,2.37^[a],CCOC(=O)C(C#N)=C(NCc1ccccn1)c1c(C(F)F)nn(C)c1Cl [Compound 155]
5,3.51^[a],CCOC(=O)C(C#N)=C(NC(C)C(C)C)c1ccnc(C)c1Cl (stereo not shown) [Compound 1211]
6,5.11^[a],CCOC(=O)C(C#N)=C(NC(C)C1CCCCC1)c1sccc1C(F)(F)F (stereo not shown) [Compound 873]
7,2.8^[a],CCOC(=O)C(C#N)=C(NC(C)C1CC1)c1cn(C)nc1OC (stereo not shown) [Compound 891]
8,2.76^[a],CCC(CC)NC(=C(C#N)C(=O)OC)c1cccnc1Cl [Compound 756]
9,3.29^[a],COC(=O)C(C#N)=C(NC(C(=O)OC)C(C)C)c1sc(C)nc1C(F)(F)F (stereo not shown) [Compound 667]
10,3.42^[a],CCOC(=O)C(C#N)=C(NCc1nc(C(F)(F)F)cs1)c1ccsc1Br [Compound 249]
11,4.7^[a],C=CCCCC(C=C)NC(=C(C#N)C(=O)OCC)c1sccc1C(F)(F)F (racemic) [Compound 1014]
12,3.24^[a],CCOC(=O)C(C#N)=C(NC(C)c1ccccn1)c1c(C(F)(F)F)nn(C)c1Cl (stereo not shown) [Compound 314]
13,2.96^[a],CCOC(=O)C(C)NC(=C(C#N)C(=O)OC)c1sc(C)nc1C(F)(F)F (racemic) [Compound 664]
14,1.13^[a],CCOC(=O)C(C#N)=C(NC(C)CN(C)C)c1cn(C)nc1C(F)F (racemic) [Compound 578]
15,3.75^[a],CCOC(=O)C(C#N)=C(NC(C)C(F)(F)F)c1sc(Cl)nc1Cl (racemic) [Compound 809]
16,1.63^[a],CCOC(=O)C(C#N)=C(NC(C)CN(C)C)c1ncc(C(F)(F)F)cc1Cl (racemic) [Compound 583]

# Same assay, conditions: pH 7.5
row,Structure (SMILES),Log P
1,C=CCONC(=O)C(C#N)=C(NC(C)C(C)C)c1cccnc1Cl (stereo not shown) [Compound 1461],2.62
2,CCOC(=O)C(C#N)=C(Nc1cccc(F)c1OC)c1cccnc1Cl [Compound 1611],3.13^[c]; 3.13^[b]

# Second part, the compound after the results:
row,Log P,Structure (SMILES)
1,4.67,CCOC(=O)C(C#N)=C(NC(C)C(C)C)c1cccnc1-c1cc(Cl)cc(Cl)c1 (stereo not shown) [Compound 975]
2,2.27,CCOC(=O)C(C#N)=C(NC(CC)C(=O)OC)c1cccnc1Cl (stereo not shown) [Compound 582]
3,3.57,CCOC(=O)C(C#N)=C(NC(C)C(C)C)c1cccnc1-c1ccsc1 (stereo not shown) [Compound 1519]
4,3.09,CCOC(=O)C(C#N)=C(NC(C)CSC)c1ccc(C)nc1Cl (mixture of isomers) [Compound 633]
5,2.05,C#CCNC(=C(C#N)C(=O)OCC)c1cccnc1Cl [Compound 1044]
